From PMC5917092, “Fine-Tuned Enzymatic Hydrolysis of Organosolv Pretreated Forest Materials for the Efficient Production of Cellobiose” (Frontiers in Chemistry, 2018) come the findings set out here.

Test [1] deals with TtCBH7 (Thermothelomyces thermophilus, UniProt G2Q665). The test is described as follows: Kinetics and inhibition of TtCBH7 by mono/oligosaccharides with MUG2 as substrate (Lineweaver-Burk). Type of test: biochemical, Thermothelomyces thermophila. The conditions noted are these: for Kmapp: TtCBH7, substrate MUG2, in the presence of 10 mM inhibitor; for Inhibitory effect on TtCBH7 (in words): activity on MUG2, inhibitor 5 and 10 mM. Here is the method:
The release of methyl-umbelliferyl was followed by measuring the absorbance at A350. The inhibition of CBHs by specific mono/oligosaccharides was determined by estimating the enzymatic activity on MUG2 in presence of different inhibitor concentrations (5 and 10 mM). Kinetic analysis of inhibition was carried out on xylose (X1), xylobiose (X2), xylotriose (X3), mannose (M1), mannobiose (M2), mannotriose (M3), glucose (G1), cellobiose (G2), and xylosyl-cellobiose (XC). Lineweaver–Burk plots were drawn to determine Km, Vmax, and inhibition constant (Ki) values.
Figure 4 Inhibition studies of TtCBH7 by glucan, xylan, and mannan mono- and oligo-saccharides. Absorbance at 355 nm was measured after 30 min incubation with MUG2 at concentrations ranging from 0.1 to 2 mM, at 45°C, pH 5.0.

In test [2] the test system is TtCBH6. Briefly: Kinetics and inhibition of TtCBH6 by mono/oligosaccharides with MUG2 as substrate (Lineweaver-Burk). Type of test: biochemical, Thermothelomyces thermophila. The settings on record: for Inhibitory effect on TtCBH6 (in words): activity on MUG2, inhibitor 5 and 10 mM. How it is done:
The release of methyl-umbelliferyl was followed by measuring the absorbance at […]. The inhibition of CBHs by specific mono/oligosaccharides was determined by estimating the enzymatic activity on MUG2 in presence of different inhibitor concentrations (5 and 10 mM). Kinetic analysis of inhibition was carried out on xylose (X1), xylobiose (X2), xylotriose (X3), mannose (M1), mannobiose (M2), mannotriose (M3), glucose (G1), cellobiose (G2), and xylosyl-cellobiose (XC). Lineweaver-Burk plots were drawn to determine Km, Vmax, and inhibition constant (Ki) values.

The mark [3] stands for this setting: TtCBH7, substrate MUG2, inhibitor 5 mM (Km app).
The mark [4] stands for this setting: TtCBH7, substrate MUG2, inhibitor 10 mM.
[5] abbreviates: TtCBH7, substrate MUG2, inhibitor 10 mM (Km app).
[6] abbreviates: TtCBH6, substrate MUG2, inhibitor 5 mM (Km app).
Where [7] appears, read: TtCBH6, substrate MUG2, inhibitor 10 mM (Km app).

“Also recorded” adds a separate entry of the source.

Chain of TtCBH7 (G2Q665 entry or part of it): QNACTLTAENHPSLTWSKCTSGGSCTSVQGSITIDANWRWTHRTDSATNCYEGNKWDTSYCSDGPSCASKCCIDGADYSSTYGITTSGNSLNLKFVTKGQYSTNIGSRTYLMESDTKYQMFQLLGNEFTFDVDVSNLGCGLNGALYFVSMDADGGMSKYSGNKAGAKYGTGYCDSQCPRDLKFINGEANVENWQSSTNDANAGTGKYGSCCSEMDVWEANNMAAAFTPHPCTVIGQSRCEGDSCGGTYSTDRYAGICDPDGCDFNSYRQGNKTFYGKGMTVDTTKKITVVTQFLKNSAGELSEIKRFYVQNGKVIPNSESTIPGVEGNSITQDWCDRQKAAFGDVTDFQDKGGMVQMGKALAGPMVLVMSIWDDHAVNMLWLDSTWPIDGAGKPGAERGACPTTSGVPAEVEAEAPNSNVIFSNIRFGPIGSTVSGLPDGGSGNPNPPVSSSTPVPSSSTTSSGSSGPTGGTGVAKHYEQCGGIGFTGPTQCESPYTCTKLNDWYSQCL

Take `OC1OC[C@@H](O[C@@H]2OC[C@@H](O)[C@H](O)[C@H]2O)[C@H](O)[C@H]1O` (some centres unmarked) [Xylobiose, xylobiose]: the Kmapp in test [1] is on record as 1.17 mM. Moreover, the “Km/Km^app” value in test [1] (setting [3]) turned out to be 0.81 µM; in test [1] (setting [5]), 1.17 µM; in test [2] (setting [6]) it was 0.44 µM; in test [2] (setting [7]), 0.41 µM. The same compound had a Ki in test [1] (setting [4]) of 33.3 mM.
For `OC[C@H]1O[C@@H](O[C@H]2[C@H](O)[C@H](O)C(O)O[C@@H]2CO)[C@@H](O)[C@@H](O)[C@@H]1O` (some centres unmarked) [Mannobiose, mannobiose], in test [1], the Kmapp is listed as 1.04 mM. The “Km/Km^app” value turned out to be 0.91 µM in test [1] (setting [3]), 1.04 µM in test [1] (setting [5]), 0.38 µM in test [2] (setting [6]) and 0.35 µM in test [2] (setting [7]).
For the compound xylosyl-cellobiose, the “Km/Km^app” value in test [1] (setting [3]) is 0.99 µM; in test [1] (setting [5]) it was 1.01 µM; in test [2] (setting [6]), 0.43 µM; in test [2] (setting [7]), 0.48 µM.
On to mannotriose, for which the “Km/Km^app” value is 0.88 µM in test [1] (setting [3]), 0.98 µM in test [1] (setting [5]), 0.41 µM in test [2] (setting [6]) and 0.44 µM in test [2] (setting [7]). Besides, the “Inhibitory effect on TtCBH7 (in words)” value in test [1] was “very weak inhibitory effect”.
Consider `OC[C@H]1OC(O)[C@H](O)[C@@H](O)[C@@H]1O` (some centres unmarked) [Glucose, glucose], for which the Kmapp in test [1] came to 1.58 mM. The “Km/Km^app” value was 1.00 µM in test [1] (setting [3]), 1.58 µM in test [1] (setting [5]), 0.39 µM in test [2] (setting [6]) and 0.41 µM in test [2] (setting [7]). Also, in test [1] (setting [4]), affinity was put at a Ki of 13.2 mM. Further, in test [2], the “Inhibitory effect on TtCBH6 (in words)” value is “no inhibitory effect”.
With `OC1OC[C@@H](O[C@@H]2OC[C@@H](O[C@@H]3OC[C@@H](O)[C@H](O)[C@H]3O)[C@H](O)[C@H]2O)[C@H](O)[C@H]1O` (some centres unmarked) [Xylotriose, xylotriose], the “Km/Km^app” value in test [1] (setting [3]) stood at 0.77 µM; in test [1] (setting [5]), 0.95 µM; in test [2] (setting [6]), 0.42 µM; in test [2] (setting [7]), 0.46 µM. In addition, the “Inhibitory effect on TtCBH7 (in words)” value in test [1] is recorded as “very weak inhibitory effect”.
As for `Cc1cc(=O)oc2cc(O[C@@H]3O[C@H](CO)[C@@H](O[C@@H]4O[C@H](CO)[C@@H](O)[C@H](O)[C@H]4O)[C@H](O)[C@H]3O)ccc12` [MUG2, 4-methyl-umbelliferyl-β-cellobiose], in test [1] (TtCBH7, absence of any inhibitor), the Km stood at 900 µM. The “Km/Km^app” value in test [1] (TtCBH7, substrate MUG2, no inhibitor (Km), pH 5.0, 45°C) turned out to be 0.90 µM; in test [2] (TtCBH6, substrate MUG2, no inhibitor (Km), pH 5.0, 45°C), 0.42 µM.
For the compound `O=C[C@H](O)[C@@H](O)[C@H](O[C@@H]1O[C@H](CO)[C@@H](O)[C@H](O)[C@H]1O)[C@H](O)CO` [Cellobiose, cellobiose], the Kmapp in test [1] stood at 6.54 mM. For the same compound, the Ki was determined as 1.43 mM in test [1] (TtCBH7, substrate MUG2, inhibitor 5 mM) and 1.59 mM in test [1] (setting [4]). For the same compound, the “Km/Km^app” value in test [1] (setting [3]) turned out to be 4.04 µM; in test [1] (setting [5]), 6.54 µM; in test [2] (setting [6]), 0.40 µM; in test [2] (setting [7]) it was 0.45 µM. Besides, the “Inhibitory effect on TtCBH7 (in words)” value in test [1] is reported as “strong inhibitor; also recorded: strongly inhibited”. For the same compound, the “Inhibitory effect on TtCBH6 (in words)” value in test [2] is recorded as “no inhibitory effect”.

As a reminder, the Ki is the equilibrium dissociation constant of an inhibitor or competing ligand from its target. The Km is the substrate concentration at which the rate is half of its maximum.
